Data from patent US20220249492A1, “ANTICANCER COMBINATION THERAPY” (Boehringer Ingelheim International GmbH, priority 2019, published 2022).
pIC50: −log10 of the molar value. Blank lines part the entries; values can stand above or below the compound they belong to.

Legend:
[1] = molecular target: T1, protein-protein interaction between SOS1 and KRAS G12D (Homo sapiens, UniProt Q07889); test: KRAS::SOS1 AlphaScreen binding assay
T1 construct: GST-TEV-SOS1 (564-1049) is purchased from Viva Biotech Ltd; purchased Viva Biotech Ltd. (GST-TEV-SOS1); Xtal BioStructures, Inc. (K-Ras G12D) Lot #X129-110 (K-Ras)
T1 sequence (Q07889 564-1049): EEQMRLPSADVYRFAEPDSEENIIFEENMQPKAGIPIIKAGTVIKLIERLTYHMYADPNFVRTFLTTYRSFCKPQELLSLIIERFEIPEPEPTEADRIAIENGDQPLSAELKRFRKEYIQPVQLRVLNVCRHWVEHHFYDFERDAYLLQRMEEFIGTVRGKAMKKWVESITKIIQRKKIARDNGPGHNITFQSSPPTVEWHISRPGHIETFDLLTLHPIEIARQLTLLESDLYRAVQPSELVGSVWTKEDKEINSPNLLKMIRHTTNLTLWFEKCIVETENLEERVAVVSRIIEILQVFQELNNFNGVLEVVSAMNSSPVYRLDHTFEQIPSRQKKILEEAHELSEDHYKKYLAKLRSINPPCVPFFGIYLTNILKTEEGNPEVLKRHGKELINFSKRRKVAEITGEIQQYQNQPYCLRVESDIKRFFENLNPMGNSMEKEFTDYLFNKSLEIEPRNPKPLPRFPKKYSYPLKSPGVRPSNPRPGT
Procedure: KRAS::SOS1 AlphaScreen Binding Assay
Low IC50 values are indicative of high potency of the SOS1 inhibitors in this assay setting:
10 nM (final assay concentration) KRAS G12D, 10 μM (final assay concentration) GDP and 5 nM (final assay concentration) GST-SOS1 are mixed in assay buffer prior to use and kept at room temperature.
AlphaLISA Glutathione Acceptor Beads and AlphaScreen Streptavidin Donor Beads are mixed in assay buffer at a concentration of 10 μg/mL (final assay concentration) each prior to use and kept at room temperature.
Compounds are diluted to a final start concentration of 100 μM and are tested in duplicate. Assay-ready plates (ARPs) are generated using an Access Labcyte Workstation with a Labcyte Echo 550 or 555 accoustic dispenser. For compound a start concentration of 100 μM, 150 nL of compound solution is transferred per well in 11 concentrations in duplicate with serial 1:5 dilutions.
The assay is run using a fully automated robotic system in a darkened room below 100 Lux. 10 μL of KRAS::SOS1 GDP mix is added into columns 1-24 to the 150 nL of compound solution (final dilution in the assay 1:100, final DMSO concentration 1%).
After a 30 minute incubation time 5 μL of bead mix is added into columns 1-23. Plates are kept at room temperature in a darkened incubator. After a further 60 minute incubation, the signal is measured using a PerkinElmer Envision HTS Multilabel Reader using the AlphaScreen specifications from PerkinElmer. Each plate contains the following controls: • diluted DMSO+KRAS::SOS1 GDP mix+bead mix • diluted DMSO+KRAS::SOS1 GDP mix
IC50 values are calculated and analyzed using a 4 parametric logistic model.

[2] = test system: ERK phosphorylation (pERK Thr202/Tyr204) in DLD-1 cells (KRAS G13D); test: ERK phosphorylation assay (AlphaLISA SureFire Ultra p-ERK1/2) in DLD-1 cells; type: cell-based; settings: Homo sapiens, 1 h compound incubation, EGF 50 ng/mL for 10 minutes
Procedure: ERK Phosphorylation Assay
Low IC50 values are indicative of high potency of the SOS1 inhibitors in this assay setting.
ERK phosphorylation assays are performed using the following human cell lines:
DLD-1 (ATCC CCL-221): human colon cancer with a KRAS G13D mutation;
DLD-1 cells (ATCC CCL-221) are seeded at 50,000 cells per well in/60 μL of RPMI with 10% FBS, non-essential amino acids, pyruvate and glutamax in Greiner TC 384 plates. The cells are incubated for 1 h at room temperature and then incubated overnight in an incubator at 37° C. and 5% CO2 in a humidified atmosphere. 60 nL compound solution (10 mM DMSO stock solution) is then added using a Labcyte Echo 550 device. After a 1 h incubation in the aforementioned incubator, 3 μL Epidermal Growth Factor (EGF, final concentration 50 ng/mL) is added. […] After 20 minutes of incubation at room temperature with shaking, 6 μL of each lysate sample is transferred to a 384-well Proxiplate and analyzed for pERK (Thr202/Tyr204) with the AlphaLISA SureFire Ultra pERK1/2 (Thr202/Tyr204) Assay Kit. 3 μL Acceptor Mix and 3 μL Donor Mix are added under subdued light and incubated for 2 h at room temperature in the dark, before the signal is measured on a Perkin Elmer Envision plate reader using 384 AlphaScreen settings for Proxiplates. […]

[3] = Metabolic (microsomal) stability assay, mouse (MLM); type: in vitro ADME; settings: mouse liver microsomes, 0.5 mg/mL protein, 1 μM test compound, 37° C.; predicted clearance as percent of liver blood flow
Procedure: (§1) Metabolic (Microsomal) Stability Assay:
(§2) The metabolic degradation of the test compound is assayed at 37° C. with pooled liver microsomes (mouse (MLM), rat (RLM) or human (HLM)). The final incubation volume of 74 μL per time point contains TRIS buffer (pH 7.5; 0.1 M), magnesium chloride (6.5 mM), microsomal protein (0.5 mg/mL for mouse/rat, 1 mg/mL for human specimens) and the test compound at a final concentration of 1 μM. Following a short preincubation period at 37° C., the reactions are initiated by addition of 8 μL beta-nicotinamide adenine dinucleotide phosphate, reduced form (NADPH, 10 mM) and terminated by transferring an aliquot into solvent after different time points. Additionally, the NADPH-independent degradation is monitored in incubations without NADPH, terminated at the last time point by addition of acetonitrile. The quenched incubations are pelleted by centrifugation (1811 g, 5 min). An aliquot of the supernatant is assayed by LC-MS/MS for the amount of parent compound.
(§3) In vitro intrinsic clearance (CLint,in vitro) is calculated from the time course of the disappearance of the test drug during the microsomal incubation. […] For better across species comparison the predicted clearance is expressed as percent of the liver blood flow [% QH] in the individual species. […]

[4] = Metabolic (microsomal) stability assay, human (HLM); type: in vitro ADME; settings: human liver microsomes, 1 mg/mL protein, 1 μM test compound, 37° C.; predicted clearance as percent of liver blood flow
Procedure: as §1, §2, §3

[5] = Metabolic (microsomal) stability assay, rat (RLM); type: in vitro ADME; settings: rat liver microsomes, 0.5 mg/mL protein, 1 μM test compound, 37° C.; predicted clearance as percent of liver blood flow
Procedure: as §1, §2, §3

[6] = molecular target: T2, CYP3A4 (Homo sapiens, UniProt P08684); test: Time dependent inhibition of CYP3A4 assay (TDI 3A4); type: in vitro ADME; settings: human liver microsomes, 25 uM test compound; hydroxy-midazolam formation after 30 min preincubation relative to 0 min preincubation
T2 construct: from tissue; host or cells: human liver microsomes
T2 sequence (P08684 whole entry): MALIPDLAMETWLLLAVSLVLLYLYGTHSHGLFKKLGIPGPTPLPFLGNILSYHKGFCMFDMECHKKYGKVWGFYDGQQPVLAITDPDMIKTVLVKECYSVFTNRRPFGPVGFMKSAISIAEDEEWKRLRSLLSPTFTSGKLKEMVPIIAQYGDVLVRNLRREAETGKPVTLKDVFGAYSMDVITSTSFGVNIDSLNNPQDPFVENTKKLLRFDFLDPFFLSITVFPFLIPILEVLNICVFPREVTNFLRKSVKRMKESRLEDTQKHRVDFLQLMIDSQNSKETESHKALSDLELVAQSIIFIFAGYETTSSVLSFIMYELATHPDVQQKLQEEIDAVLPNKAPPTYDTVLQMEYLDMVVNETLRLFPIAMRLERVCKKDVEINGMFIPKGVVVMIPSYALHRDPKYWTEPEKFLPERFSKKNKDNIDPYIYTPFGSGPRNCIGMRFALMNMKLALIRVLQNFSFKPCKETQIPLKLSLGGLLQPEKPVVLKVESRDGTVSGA
Procedure: Time dependent inhibition of CYP3A4 Assay (TDI 3A4):
The time dependent inhibition towards CYP3A4 is assayed in human liver microsomes (0.02 mg/mL) with midazolam (15 μM) as a substrate. The test compounds are preincubated in presence of NADPH with human liver microsomes (0.2 mg/mL) at a concentration of 25 uM for 0 min and 30 min. After preincubation, the incubate is diluted 1:10 and the substrate midazolam is added for the main incubation (15 min). The main incubation is quenched with acetonitrile and the formation of hydroxy-midazolam is quantified via LC/MS-MS. The formation of hydroxy-midazolam from the 30 min preincubation relative to the formation from the 0 min preincubation is used as a readout. Values of less than 100% mean that the substrate midazolam is metabolized to a lower extend upon 30 min preincubation compared to 0 min preincubation. In general low effects upon 30 min preincubation are desired (corresponding to values close to 100%)

[7] = KRAS::SOS1 AlphaScreen, KRAS G12D, IC50, tables 20 and 24
[8] = KRAS G12D::SOS1 AlphaScreen, measured without EDTA unless marked with an asterisk

- MLM [% QH] [3]: <24 % QH
- pIC50 [1, 7]: 8.05
- HLM [% QH] [4]: <24 % QH
- RLM [% QH] [5]: <23 % QH
Structure (SMILES): C[C@@H](Nc1ncnc2cc(=O)n(C34CC(F)(C3)C4)cc12)c1cccc(C(C)(F)F)c1F [I-78]

- pIC50 [1, 8]: 7.96
Structure (SMILES): C[C@@H](Nc1ncnc2c(C3CC3)c(=O)n(C3(C)CC3)cc12)c1cccc(C(F)F)c1F [I-179]

Continued, compound first:

Structure (SMILES): Cc1nc(N[C@H](C)c2cccc(C(F)(F)F)c2C)c2cn([C@H]3C[C@H](F)C3)c(=O)cc2n1 [I-45]
- pIC50 [1, 7]: 7.96
- pIC50 [2]: 7.33

Structure (SMILES): Cc1nc(N[C@H](C)c2cccc(C(F)(F)F)c2C)c2cn(C34CCN(CC3)CC4)c(=O)cc2n1 [I-128]
- TDI 3A4 [%] [6]: 98%
- MLM [% QH] [3]: <24 % QH
- pIC50 [1, 8]: 8.70
- HLM [% QH] [4]: 29 % QH
- RLM [% QH] [5]: <23 % QH

Structure (SMILES): Cc1nc(N[C@H](C)c2cccc(C(C)(F)F)c2)c2cn(C3(C(F)(F)F)CCOC3)c(=O)cc2n1 (stereo partly drawn) [I-129]
- pIC50 [1, 8]: 7.74

Structure (SMILES): Cc1c(=O)n(C2(C)CC2)cc2c(N[C@H](C)c3cccc(C(F)(F)F)c3)ncnc12 [I-173]
- TDI 3A4 [%] [6]: 84%
- pIC50 [1, 7]: 7.74
